Patent publication US20230090439A1, “PHARMACEUTICAL COMPOSITION FOR CONTROLLING PARASITES ON NON-HUMAN ORGANISMS” (priority 2020, published 2023)

Experiment: Solubility experiments (saturation solubility in solvents, HPLC-UV of supernatant)
Format: physicochemical
Conditions: for Solubility in the solvent mixture of the composition according to the invention (in words): isopropanol/propylene carbonate 65:35, room temperature
Excerpt: Dissolution experiments for active ingredients I-1, I-2, I-3 and I-4 in solvents for a pharmaceutical composition according to the invention are presented below. For biological effect, the active ingredient should be incorporated at a certain dose or amount in the formulation, in the ideal case it should be a solution in the formulation such that the active ingredient is therefore dissolved in the solvent. A certain minimum solubility is required for the solvent since the application volume is limited.
In this case, 10 g of the appropriate solvent or solvent mixture were initially charged and as much active ingredient was added until the solution is saturated. Isopropanol (IPA) and propylene carbonate (PPC) were used as solvents. The samples were stirred for 3 days. Should the active ingredient become fully dissolved, active ingredient was again added. Subsequently, the samples were stored for a further 4 days at the relevant temperature and centrifuged in order to remove the undissolved particles. The supernatants were analyzed in each case for active ingredient content by HPLC-UV.
Furthermore, solubility experiments with three further active ingredients from the class of fluorinated heteroarylamides in different solvents were carried out. The solubility experiments were carried out analogously to the experiments described above, however only at room temperature and the solvent mixture isopropanol/propylene carbonate 65:35% [m/m] was selected.
Experiments with solvent systems were also carried out in which the first solvent comprised two alcohols.

[1] = Isopropanol, room temperature (Table 2)
[2] = Isopropanol/propylene carbonate 65/35, room temperature (Table 2)
[3] = Propylene carbonate, room temperature (Table 2)

CN(C(=O)c1cc(-c2cnn(-c3c(Cl)cc(C(F)(C(F)(F)F)C(F)(F)F)cc3Cl)c2)cnc1Cl)C1CC1 [I-1, 2-chloro-N-cyclopropyl-5-[1-[2,6-dichloro-4-[1,2,2,2-tetrafluoro-1-(trifluoromethyl)-ethyl]phenyl]pyrazol-4-yl]-N-methylpyridine-3-carboxamide]
Saturation solubility (Ethanol (Table 3)): 2.76 % [ w/w]
Saturation solubility (Ethanol/glycerol carbonate 65:35 (Table 3)): 6.48 % [ w/w]
Saturation solubility (Ethanol/propylene carbonate 65:35 (Table 3)): 9.45 % [ w/w]
Solubility (Ethanol/propylene carbonate/glycerol carbonate 65:17.5:17.5): >5 % [w/w]
Saturation solubility (Glycerol carbonate (Table 3)): 0.15 % [ w/w]
Saturation concentration of the solution (IPA/PPC 25/75 23° C.): 7.58 %[w/w]
Saturation concentration of the solution (IPA/PPC 35/65 23° C.): 8.79 %[w/w]
Saturation concentration of the solution (IPA/PPC 50/50 23° C.): 9.26 %[w/w]
Saturation concentration of the solution (IPA/PPC 60/40 23° C.): 8.60 %[w/w]
Saturation concentration of the solution (IPA/PPC 65/35 5° C.): 6.32 %[w/w]
Saturation concentration of the solution (IPA/PPC 65/35 23° C.): 8.31 %[w/w]
Saturation concentration of the solution (IPA/PPC 70/30 23° C.): 7.49 %[w/w]
Saturation concentration of the solution (IPA/PPC 75/25 23° C.): 6.70 %[w/w]
Saturation concentration of the solution (IPA/PPC 80/20 23° C.): 5.90 %[w/w]
Saturation concentration of the solution (IPA/PPC 90/10 23° C.): 3.74 %[w/w]
Saturation concentration of the solution (Isopropanol 5° C.): 0.98 %[w/w]
Saturation concentration of the solution (Isopropanol 23° C.): 1.56 %[w/w]
Saturation solubility (Isopropanol (Table 3)): 1.56 % [ w/w]
Solubility (Isopropanol/ethanol/glycerol carbonate 32.5:32.5:35): >5 % [w/w]
Solubility (Isopropanol/ethanol/propylene carbonate 32.5:32.5:35): >5 % [w/w]
Saturation solubility (Isopropanol/glycerol carbonate 65:35 (Table 3)): 5.98 % [ w/w]
Solubility (Isopropanol/propylene carbonate/glycerol carbonate 65:17.5:17.5): >5 % [w/w]
Saturation concentration of the solution (Propylene carbonate 5° C.): 1.80 %[w/w]
Saturation concentration of the solution (Propylene carbonate 23° C.): 2.43 %[w/w]
Saturation solubility (Propylene carbonate (Table 3)): 2.43 % [ w/w]
Solubility in the mixture of isopropanol and propylene carbonate compared to the pure solvents (in words) (mixture of isopropanol and propylene carbonate vs pure solvents): significant solubility increase
Solubility in the solvent systems of Table 4 (in words) (three-component alcohol/carbonate solvent systems of Table 4): good solubilities

O=C(NC1CC1)c1cc(-c2cnn(-c3c(Cl)cc(C(F)(C(F)(F)F)C(F)(F)F)cc3OC(F)(F)F)c2)cnc1Cl [I-2]
Saturation solubility [1]: 6.99 % [w/w]
Saturation solubility [2]: 24.20 % [w/w]
Saturation solubility [3]: 5.34 % [w/w]
Solubility in the solvent mixture of the composition according to the invention (in words): very good solubilities

O=C(NC1CC1)c1cc(-c2cnn(-c3c(Cl)cc(C(F)(C(F)(F)F)C(F)(F)F)cc3C(F)(F)F)c2)cnc1Cl [I-3, 2-chloro-5-[1-[2-chloro-4-[1,2,2,2-tetrafluoro-1-(trifluoromethyl)ethyl]-6-(trifluoromethyl)phenyl]-1H-pyrazol-4-yl]-N-cyclopropyl-3-pyridinecarboxamide]
Saturation solubility [1]: 4.18 % [w/w]
Saturation solubility [2]: 17.57 % [w/w]
Saturation solubility [3]: 4.89 % [w/w]
Solubility in the solvent mixture of the composition according to the invention (in words): very good solubilities

O=C(NC1CC1)c1cc(-c2cnn(-c3c(Br)cc(C(F)(C(F)(F)F)C(F)(F)F)cc3OC(F)(F)F)c2)cnc1Cl [I-4]
Saturation solubility [1]: 13.42 % [w/w]
Saturation solubility [2]: 29.38 % [w/w]
Saturation solubility [3]: 11.76 % [w/w]
Solubility in the solvent mixture of the composition according to the invention (in words): very good solubilities
